Assay results taken from EP1267867B1, “USE OF PROSTANOID EP4 RECEPTOR ANTAGONISTS FOR THE TREATMENT OF HEADACHE AND ASSAYS FOR SUCH ANTAGONISTS” (ASTERAND UK LIMITED, priority 2000, dated 2001).

Columns and labels:
[1] = molecular target: T1, EP3 (Homo sapiens, UniProt P43115); conditions: cited from earlier work
T1 sequence (P43115 1-390): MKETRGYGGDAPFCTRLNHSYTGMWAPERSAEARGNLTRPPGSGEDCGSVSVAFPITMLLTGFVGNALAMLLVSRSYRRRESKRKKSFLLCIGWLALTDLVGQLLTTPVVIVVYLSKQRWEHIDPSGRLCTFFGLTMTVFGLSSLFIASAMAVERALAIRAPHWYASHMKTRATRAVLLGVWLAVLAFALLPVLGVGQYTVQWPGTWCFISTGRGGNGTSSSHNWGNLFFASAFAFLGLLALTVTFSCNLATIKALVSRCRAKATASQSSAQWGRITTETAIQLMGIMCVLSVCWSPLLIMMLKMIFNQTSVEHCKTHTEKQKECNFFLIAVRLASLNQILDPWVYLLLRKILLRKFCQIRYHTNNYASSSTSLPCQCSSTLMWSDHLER

[2] = molecular target: T2, EP4 receptors (Sus scrofa, UniProt I3LLK4); conditions: antagonism of PGE2-induced relaxation of piglet saphenous vein through blockade of EP4 receptors; cited from earlier work
T2 construct: providing a natural source of the receptors, such as piglet saphenous vein; host or cells: piglet saphenous vein rings (tissue, endogenous receptor)

[3] = molecular target: T3, EP1 (Homo sapiens, UniProt P34995); conditions: cited from earlier work
T3 sequence (P34995 1-402): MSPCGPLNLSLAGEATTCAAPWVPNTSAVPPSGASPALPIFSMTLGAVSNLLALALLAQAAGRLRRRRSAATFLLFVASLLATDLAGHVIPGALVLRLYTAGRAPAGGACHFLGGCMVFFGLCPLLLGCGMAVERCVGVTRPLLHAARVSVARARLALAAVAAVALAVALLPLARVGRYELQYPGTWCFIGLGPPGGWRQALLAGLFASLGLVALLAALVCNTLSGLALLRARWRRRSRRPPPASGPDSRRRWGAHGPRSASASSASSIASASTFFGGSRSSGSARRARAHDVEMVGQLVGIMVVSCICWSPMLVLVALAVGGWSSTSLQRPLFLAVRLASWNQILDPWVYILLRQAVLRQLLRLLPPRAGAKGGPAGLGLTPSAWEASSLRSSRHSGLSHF

[4] = molecular target: EP2 (Homo sapiens, UniProt P43116); conditions: cited from earlier work
[5] = molecular target: T4, EP4 receptor (Homo sapiens, UniProt P35408); test: Antagonism of PGE2-mediated relaxation of phenylephrine pre-contracted middle cerebral artery rings; type: cell-based; conditions: 10 mM AH23848, 45 mins preincubation, P=0.004, 2 tailed T-Test
T4 construct: Intact rings of this cerebral artery, 2-3mm in length, were set up under isometric conditions; from tissue; host or cells: human middle cerebral artery rings (one donor)
Description: (§1) Sections of cerebral artery were removed from different regions of preparations of human cerebral vasculature containing an intact circle of Willis. Intact rings of this cerebral artery, 2-3mm in length, were set up under isometric conditions in 10 ml organ baths under an initial tension of 1g. All tissues were maintained at 37°C and gassed constantly with 95% O2 / 5% CO2. Following a 90 min equilibration period all tissues were challenged with phenylephrine (1 µM), to determine tissue viability. Once a stable contraction had been obtained, tissues were exposed to a range of prostanoid receptor agonists, in the absence or presence of receptor antagonists, to determine the functional role of prostanoid receptors in maintaining arterial tone.
To test the effect of the EP4 receptor antagonist AH23848, cerebral rings were preincubated for 45 mins with 10 mM AH23848.

[6] = test system: human cerebral artery rings; test: Prostanoid agonist effects on isolated human cerebral artery rings (organ bath, isometric tension); type: cell-based; conditions: for effect on human cerebral artery rings contracted with phenylephrine: smaller diameter vessels, phenylephrine (1 µM), GR32191 (1 µM) present to block TP-receptors, Figures 3-5
Description: as §1

[7] = test system: coronary artery; test: Effect of PGE2 on pre-contracted coronary artery rings; type: cell-based, human; conditions: for relaxation of coronary artery: tone induced with phenylephrine (1-10µM) or endothelin-1, n=3 donors, cicaprost 0.1-1µM
Description: (§2) Rings (2-4mm internal diameter) were prepared from sections of pulmonary or coronary artery (n=3 each). They were mounted in organ baths under isometric conditions, in gassed Krebs solution (containing indomethacin) at 37°C, and 1-1.5g initial tone.
(§3) After at least 60min equilibration, tone was induced with U-46619 (10-100nM) in pulmonary artery or either phenylephrine (1-10µM) or endothelin-1 (-7M) in coronary artery.

[8] = test system: pulmonary artery; test: Effect of PGE2 on pre-contracted pulmonary artery rings; type: cell-based, human; conditions: tone induced with U-46619 (10-100nM), n=3 donors; cicaprost 0.1-1µM
Description: as §2, §3

T2 sequence (I3LLK4 1-489): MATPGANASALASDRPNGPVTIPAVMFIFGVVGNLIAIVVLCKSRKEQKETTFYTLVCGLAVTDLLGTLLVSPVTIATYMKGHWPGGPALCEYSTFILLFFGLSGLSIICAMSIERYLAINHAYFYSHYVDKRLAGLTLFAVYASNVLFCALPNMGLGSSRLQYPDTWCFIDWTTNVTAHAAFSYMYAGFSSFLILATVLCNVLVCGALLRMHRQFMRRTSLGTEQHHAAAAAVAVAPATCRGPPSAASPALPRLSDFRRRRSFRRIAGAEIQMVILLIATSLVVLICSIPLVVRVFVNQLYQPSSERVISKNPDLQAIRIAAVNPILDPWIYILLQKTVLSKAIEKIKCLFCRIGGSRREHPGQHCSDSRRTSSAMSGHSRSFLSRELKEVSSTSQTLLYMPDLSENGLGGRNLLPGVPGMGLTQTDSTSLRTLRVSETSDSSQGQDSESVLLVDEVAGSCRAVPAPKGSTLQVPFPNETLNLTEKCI
Chain of EP2 (P43116 whole entry): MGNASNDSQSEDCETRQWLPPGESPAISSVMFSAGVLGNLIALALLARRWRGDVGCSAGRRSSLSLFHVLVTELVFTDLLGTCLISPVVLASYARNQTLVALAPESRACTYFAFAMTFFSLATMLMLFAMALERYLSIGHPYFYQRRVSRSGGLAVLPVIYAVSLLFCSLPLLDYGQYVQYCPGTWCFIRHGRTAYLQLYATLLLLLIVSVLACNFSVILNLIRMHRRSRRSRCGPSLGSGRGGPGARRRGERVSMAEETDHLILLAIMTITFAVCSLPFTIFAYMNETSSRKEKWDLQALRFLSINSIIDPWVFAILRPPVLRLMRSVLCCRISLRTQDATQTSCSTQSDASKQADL
T4 sequence (P35408 whole entry): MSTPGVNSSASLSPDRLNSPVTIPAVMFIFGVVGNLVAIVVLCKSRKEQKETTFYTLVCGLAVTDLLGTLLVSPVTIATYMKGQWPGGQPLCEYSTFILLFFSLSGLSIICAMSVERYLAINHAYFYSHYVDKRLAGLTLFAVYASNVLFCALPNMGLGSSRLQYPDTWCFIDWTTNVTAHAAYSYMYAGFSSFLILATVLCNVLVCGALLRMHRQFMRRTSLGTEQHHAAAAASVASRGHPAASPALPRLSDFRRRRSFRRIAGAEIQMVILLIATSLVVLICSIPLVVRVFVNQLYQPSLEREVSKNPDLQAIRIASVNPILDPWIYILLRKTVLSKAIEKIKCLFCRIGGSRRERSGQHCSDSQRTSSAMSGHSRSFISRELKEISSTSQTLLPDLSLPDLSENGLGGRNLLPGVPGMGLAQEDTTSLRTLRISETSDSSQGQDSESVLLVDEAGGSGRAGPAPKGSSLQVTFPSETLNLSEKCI

Q: Which “effect on EP receptor subtype EP3” value [1] does the source give for `O=C(O)CCC/C=C\C[C@H]1[C@@H](OCc2ccc(-c3ccccc3)cc2)CC(=O)[C@@H]1N1CCOCC1` [AH22921] here?
A: no effect

Q: And the pA2 [2]?
A: 5.3

Q: And the “effect on EP receptor subtype EP1” value [3]?
A: no effect

Q: And the “effect on EP receptor subtype EP2” value [4]?
A: no effect

Q: With `O=C(O)CCC=CCCC1C(OCc2ccc(-c3ccccc3)cc2)CC(=O)C1N1CCOCC1` (centres unmarked) [AH23848] as the compound, how does the “effect on EP receptor subtype EP3” value [1] read?
A: no effect

Q: And the pA2 [2]?
A: 5.4

Q: And the “effect on EP receptor subtype EP1” value [3]?
A: no effect

Q: What about the “effect on EP receptor subtype EP2” value [4] of the same compound?
A: no effect

Q: And the “shift in the PGE2-mediated relaxation” value [5]?
A: significant rightward shift

Q: With `CC#CCC(C)[C@H](O)/C=C/[C@@H]1[C@H]2C/C(=C/CCCC(=O)O)C[C@H]2C[C@H]1O` (some centres unmarked) [Iloprost] as the compound, how does the “effect on human cerebral artery rings contracted with phenylephrine” value (shortened to “effect … with phenylephrine”) [6] read?
A: induced relaxation

Q: For `CCCCC[C@H](O)/C=C/[C@H]1C(=O)C[C@H](O)[C@@H]1C/C=C\CCCC(=O)O` [PGD2], which “effect … with phenylephrine” value [6] is on record?
A: without effect

Q: Which results are given for `CCCCC[C@H](O)/C=C/[C@H]1[C@H](O)CC(=O)[C@@H]1C/C=C\CCCC(=O)O` [PGE2, prostaglandin E2]?
A: contraction of coronary artery ([7]; pre-contracted coronary artery, likely due to activation of EP3 receptors): A small contraction; relaxation of coronary artery [7]: did not cause relaxation; relaxation of cerebral artery rings pre-contracted with 5-HT ([6]; 5-HT (300nM and 1µM), Figure 2B, 2C): maximal or near maximal relaxation; relaxation of cerebral artery rings pre-contracted with U46619 ([6]; U46619 (100nM), Figure 2A): maximal or near maximal relaxation; concentration at which maximum relaxation occurs ([6]; cerebral blood vessel pre-contracted with phenylephrine, Figure 1): below 10^-6 M; effect on larger vessels ([6]; human cerebral artery, internal diameter > 1mm): concentration-related contraction; effect on smaller vessels ([6]; pre-contracted human cerebral blood vessels, internal diameter < 1mm): potent concentration-related relaxation; relaxation of pulmonary artery [8]: did not cause relaxation

Q: For `CCCCC[C@H](O)/C=C/[C@@H]1[C@@H](C/C=C\CCCC(=O)O)[C@@H](O)C[C@H]1O` [PGF2α], which “effect … with phenylephrine” value [6] is on record?
A: without effect

Q: What does the source list for `CCC#CC[C@H](C)[C@H](O)C#C[C@@H]1[C@H]2C/C(=C/COCC(=O)O)C[C@H]2C[C@H]1O` [cicaprost]?
A: relaxation of coronary artery [7]: induced a relaxation in all preparations; effect on human cerebral artery rings contracted with phenylephrine [6]: induced relaxation; relaxation of pulmonary artery [8]: induced a relaxation in all preparations
